Data from ChEMBL document CHEMBL4828751, “Discovery of novel tubulin/HDAC dual-targeting inhibitors with strong antitumor and antiangiogenic potency” (Eur J Med Chem, 2021).
Activity calls are given as the source filed them. No cut-off for these calls is given here.

Experiments:
A549 = test: Antiproliferative activity against human A549 cells assessed as cell growth inhibition after 72 hrs by SRB assay; assay type: functional, cell-based; details: A549, 72 h
MGC-803 [1] = test: Induction of cell cycle arrest in human MGC-803 cells assessed as accumulation at G2/M phase at 7.5 nM incubated for 24 hrs by propidium iodide staining based flow cytometry (reference value: 37.03 %); assay type: functional
HUVEC [2] = test: Antivascular activity against HUVEC assessed as inhibition of tube formation at 5 to 20 nM incubated for 48 hrs by […]; assay type: functional, cell-based; details: Homo sapiens, dose 5-20 nM
L02 = test: Cytotoxicity against human L02 cells assessed as reduction in cell viability; assay type: cell-based
MGC-803 [3] = test: Antiinvasive activity in human MGC-803 cells assessed as decrease in number of migrated MGC-803 cells at 7.5 to 30 nM measured after 48 hrs by transwell assay; assay type: functional, cell-based; details: dose 7.5-30 nM
THP-1 = test: Cytotoxicity against human THP-1 cells assessed as reduction in cell viability; assay type: cell-based
MGC-803 [4] = test: Induction of apoptosis in human MGC-803 cells assessed as necrotic cells at 7.5 nM measured after 48 hrs by Annexin V-APC/PI double staining based flow cytometry assay (reference value: 0.57 %); assay type: functional, cell-based
MGC-803 [5] = test: Induction of apoptosis in human MGC-803 cells assessed as early apoptotic cells at 7.5 nM measured after 48 hrs by Annexin V-APC/PI double staining based flow cytometry assay (reference value: 1.31 %); assay type: functional, cell-based
HUVEC [6] = test: Antiinvasive activity in HUVEC cells assessed as decrease in cell invasion at 5 to 20 nM measured after 48 hrs by transwell assay; assay type: functional, cell-based; details: Homo sapiens, dose 5-20 nM
MGC-803 [7] = test: Induction of apoptosis in human MGC-803 cells assessed as increase in cleaved Caspase-7 expression incubated for 24 hrs by Western blot analysis; assay type: functional, cell-based; details: dose 7.5-30 nM
MGC-803 [8] = test: Induction of apoptosis in human MGC-803 cells assessed as late apoptotic cells at 15 nM measured after 48 hrs by Annexin V-APC/PI double staining based flow cytometry assay (reference value: 1.05 %); assay type: functional, cell-based
MGC-803 [9] = test: Induction of apoptosis in human MGC-803 cells assessed as increase in PARP expression incubated for 24 hrs by Western blot analysis; assay type: functional, cell-based; details: dose 7.5-30 nM
MGC-803 [10] = test: Antitumor activity against CMTPX- labeled human MGC-803 cells xenografted in zebrafish assessed as inhibition of tumor metastasis measured after 72 hrs by fluorescence microscopic analysis; assay type: functional, cell-based; details: dose 25-100 nM
MGC-803 [11] = test: Induction of apoptosis in human MGC-803 cells assessed as increase in Caspase-9 expression incubated for 24 hrs by Western blot analysis; assay type: functional, cell-based; details: dose 7.5-30 nM
MGC-803 [12] = test: Induction of cell cycle arrest in human MGC-803 cells assessed as accumulation at G2/M phase incubated for 24 hrs by propidium iodide staining based flow cytometry; assay type: functional; details: dose 7.5-30 nM
MGC-803 [13] = test: Antitumor activity against CMTPX- labeled human MGC-803 cells xenografted in zebrafish assessed as inhibition of tumor growth measured after 72 hrs by fluorescence microscopic analysis; assay type: functional, cell-based; details: dose 25-100 nM
MGC-803 [14] = test: Induction of cell cycle arrest in human MGC-803 cells assessed as accumulation at G1 phase at 7.5 nM incubated for 24 hrs by propidium iodide staining based flow cytometry (reference value: 45.67 %); assay type: functional
HUVEC [15] = test: Inhibition of cell migration in HUVEC cells assessed as decrease in number of migrated endothelial cells at 5 to 20 nM measured after 48 hrs by transwell analysis; assay type: functional, cell-based; details: Homo sapiens, dose 5-20 nM
HepG2 = test: Antiproliferative activity against human HepG2 cells assessed as cell growth inhibition after 72 hrs by SRB assay; assay type: functional, cell-based; details: HepG2, 72 h
MGC-803 [16] = test: Induction of apoptosis in human MGC-803 cells assessed as late apoptotic cells at 7.5 nM measured after 48 hrs by Annexin V-APC/PI double staining based flow cytometry assay (reference value: 1.05 %); assay type: functional, cell-based
HeLa = test: Antiproliferative activity against human HeLa cells assessed as cell growth inhibition after 72 hrs by SRB assay; assay type: functional, cell-based
MGC-803 [17] = test: Induction of mitochondrial membrane potential loss in human MGC-803 cells at 30 nM after 48 hrs by JC-1 staining based flow cytometric analysis (reference value: 86 %); assay type: functional
MGC-803 [18] = test: Induction of apoptosis in human MGC-803 cells assessed as viable cells at 7.5 nM measured after 48 hrs by Annexin V-APC/PI double staining based flow cytometry assay (reference value: 97.1 %); assay type: functional, cell-based
MGC-803 [19] = test: Induction of ROS generation in human MGC-803 cells assessed as intracellular ROS level at 30 nM incubated for 24 hrs by DCFH-DA staining based flow cytometric analysis (reference value: 2.72 %); assay type: functional
MGC-803 [20] = test: Induction of ROS generation in human MGC-803 cells assessed as increase in intracellular ROS level incubated for 24 hrs by DCFH-DA staining based flow cytometric analysis; assay type: functional, cell-based; details: dose 7.5-30 nM
MGC-803 [21] = test: Induction of apoptosis in human MGC-803 cells assessed as increase in Caspase-3 expression incubated for 24 hrs by Western blot analysis; assay type: functional, cell-based; details: dose 7.5-30 nM
MGC-803 [22] = test: Induction of apoptosis in human MGC-803 cells assessed as viable cells at 15 nM measured after 48 hrs by Annexin V-APC/PI double staining based flow cytometry assay (reference value: 92.1 %); assay type: functional, cell-based
MGC-803 [23] = test: Down regulation of p21 expression in human MGC-803 cells at 7.5 to 30 nM measured after 24 hrs by Western blot analysis; assay type: functional, cell-based; details: dose 7.5-30 nM
MGC-803 [24] = test: Induction of ROS generation in human MGC-803 cells assessed as intracellular ROS level at 7.5 nM incubated for 24 hrs by DCFH-DA staining based flow cytometric analysis (reference value: 2.72 %); assay type: functional
MGC-803 [25] = test: Induction of apoptosis in human MGC-803 cells assessed as increase in cleaved Caspase-9 expression incubated for 24 hrs by Western blot analysis; assay type: functional, cell-based; details: dose 7.5-30 nM
MGC-803 [26] = test: Induction of apoptosis in human MGC-803 cells assessed as increase in cleaved PARP expression incubated for 24 hrs by Western blot analysis; assay type: functional, cell-based
MGC-803 [27] = test: Induction of cell cycle arrest in human MGC-803 cells assessed as accumulation at G2/M phase at 30 nM incubated for 24 hrs by propidium iodide staining based flow cytometry (reference value: 37.03 %); assay type: functional
MGC-803 [28] = test: Induction of ROS generation in human MGC-803 cells assessed as intracellular ROS level at 15 nM incubated for 24 hrs by DCFH-DA staining based flow cytometric analysis (reference value: 2.72 %); assay type: functional
MGC-803 [29] = test: Induction of cell cycle arrest in human MGC-803 cells assessed as accumulation at S phase at 7.5 nM incubated for 24 hrs by propidium iodide staining based flow cytometry (reference value: 17.3 %); assay type: functional
Tubulin (Homo sapiens) = Tubulin (Homo sapiens) (UniProt P68371+Q9H4B7+P0DPH7+P68366+Q13509+Q71U36+P04350+Q3ZCM7+P07437+P68363+Q9BQE3+Q6PEY2+Q13885+Q9BVA1+Q9BUF5); test: Inhibition of tubulin polymerization in human MGC-803 cells assessed as change in shape of nucleus at 2 to 7.5 nM measured after 48 hrs by Hoechst staining based confocal microscopy analysis; assay type: cell-based; details: dose 2-7.5 nM

IC50 (A549): 191 nM
IC50 (HepG2): 26 nM
IC50 (HeLa): 50 nM
inhibition (Tubulin (Homo sapiens)): Active
SMILES: COc1ccc(/C=C\c2cc(OC)c(OC)c(OC)c2)cc1/C=C/C(=O)Nc1ccccc1N
Activity (MGC-803 [1]): Dose-Dependent Effect
Activity (MGC-803 [1]; record 2): 43.82%
Activity (HUVEC [2]): Active
IC50 (L02): 556 nM
Activity (MGC-803 [3]): Active
IC50 (THP-1): 195 nM
Activity (MGC-803 [4]): Active
Activity (MGC-803 [5]): Active
inhibition (HUVEC [6]): Active
Activity (MGC-803 [7]): Dose-Dependent Effect
Activity (MGC-803 [8]): Active
Activity (MGC-803 [9]): Dose-Dependent Effect
inhibition (MGC-803 [10]): Dose-Dependent Effect
Activity (MGC-803 [11]): Dose-Dependent Effect
Activity (MGC-803 [12]): Dose-Dependent Effect
inhibition (MGC-803 [13]): Dose-Dependent Effect
Activity (MGC-803 [14]): 43.58%
inhibition (HUVEC [15]): Active
Activity (MGC-803 [16]): Active
Activity (MGC-803 [17]): 34.5%
Activity (MGC-803 [18]): Active
Activity (MGC-803 [19]): 51.4%
Activity (MGC-803 [20]): Dose-Dependent Effect
Activity (MGC-803 [21]): Dose-Dependent Effect
Activity (MGC-803 [22]): Active
Activity (MGC-803 [23]): Active
Activity (MGC-803 [24]): 17.4%
Activity (MGC-803 [25]): Dose-Dependent Effect
Activity (MGC-803 [26]): Dose-Dependent Effect
Activity (MGC-803 [27]): Dose-Dependent Effect
Activity (MGC-803 [27]; record 2): 84.19%
Activity (MGC-803 [28]): 26%
Activity (MGC-803 [29]): 12.6%
